Data published in PMC10252594 (Cancers, 2023).
Several values for one entry are separate records, joined by “and”; a condition that tells them apart may be missing. Identical values can stand only once. Like-named read-outs stand apart in the source and are kept apart here.

Assays:
LAPC-4 cells [1] = assay: Apoptosis characterization by flow cytometry (annexin-V/PI); format: cell-based, human; details: 72 h
Protocol: This experiment was performed with LAPC-4 cells (3 × 10^5) following the protocol previously reported for PC-3 cells. After the detection of annexin-V and propidium iodide fluorescence, dual parametric dot plots allowed us to calculate the percentage of each cell type: (1) non-apoptotic live cells (annexin-V-negative/PI-negative) in the lower left quadrant; (2) early apoptotic cells (annexin-V-positive/PI-negative) in the lower right quadrant; (3) late apoptotic cells (annexin-V-positive/PI-positive) in the upper right quadrant; and (4) necrotic cells (annexin-V-negative/PI-positive) in the upper left quadrant.

VCaP = assay: PCa cell viability proliferation screening (MTS), VCaP; format: cell-based; details: Homo sapiens, 168 h, AR positive, seven days
Protocol: VCaP (4 × 10^4 cells/well) were seeded in 96-well plates in DMEM media supplemented with 10% fetal bovine serum (FBS), penicillin, streptomycin, and sodium pyruvate. 22Rv1 cells (2 × 10^3 cells/well) and LAPC-4 cells (6 × 10^3 cells/well) were seeded in 96-well plates in RPMI media supplemented with 10% FBS, penicillin, streptomycin, and sodium pyruvate. The cells were incubated at 37 °C in a 5% CO2 humidified atmosphere for 24 h before treatment with multiple concentrations of RM-581 dissolved in dimethyl sulfoxide (DMSO). The concentrations used were between 0.01 μM and 50 μM. Treatment lasted for 3 days for all the cell lines except VCaP cells, which were treated for 7 days due to slower proliferation rates. At the end of the assay, 20 μL of MTS (Cell Titer 96 Aqueous, Promega, Nepean, ON, Canada) were added to each well, and the mixture was incubated for 4 h at 37 °C. The plates were subsequently analyzed at 490 nm using a Tecan M-200 microplate reader (Männedorf, Switzerland).

LAPC-4 xenografts = assay: Cholesterol determination in tumor, liver, plasma (kit, method A); format: in vivo, mice; details: 10 mg/kg PO, NS vs CTL
Protocol: (§1) A cholesterol quantification kit provided by Sigma-Aldrich (Catalog Number MAK043) was used following the manufacturer’s instructions to determine the concentration of total cholesterol, free cholesterol, and cholesteryl ester in samples. The cholesterol contents were measured in samples from two different protocols. […] Secondly, in tumor, liver, and plasma obtained at the end of the LAPC-4 xenograft experiment (control group and the group treated with RM-581 at 10 mg/kg/PO).

[2] = Dosage of RM-581 in tumors and plasma (LC-MS/MS); format: in vivo, mice; details: for RM-581 in Plasma / RM-581 in Tumor / concentration at 3 h: 3 h after last treatment; for concentration at 3 h / Kp at 3 h: nude, mouse; for Kp at 3 h: tumor/plasma, ng/g = ng/mL assumed, read-out: Concentration Index (Tumor/Plasma)
Protocol: The mice were weighed at the start and end of the protocol. Tumor area (mm^2) was calculated twice a week using two perpendicular diameters (L and W), which were recorded using a caliper, and the formula L/2 × W/2 × π. The area measured on the first day of treatment was fixed at 100%. At the end of the studies and 3 h after the last treatment, the mice were terminally anesthetized, and their final body weights were measured. Tumors, liver, kidney, and total prostate were collected from mice during necropsy, while blood was collected by cardiac puncture. Tissues and plasma were immediately frozen at −80 °C until analysis.

LAPC-4 cells [3] = assay: Total cholesterol in LAPC-4 cells (kit); format: cell-based, human; details: RM-581 2 μM or atorvastatin 10 μM; for Total cholesterol concentration in LAPC-4 cells: Table S2
Protocol: as §1

LNCaP = system: LNCaP; parameters: method as in PMID 34681843; details: AR positive, three days, MTS; cited from earlier work

C#C[C@]1(O)CC[C@H]2[C@@H]3CCc4cc(OC)c(N5CCN(C(=O)[C@@H]6CCCN6C(=O)c6ccc7ccccc7n6)CC5)cc4[C@H]3CC[C@@]21C [RM-581]
early and late apoptotic cells (LAPC-4 cells [1]; 2 to 50 µM): significant and increasing proportion | necrotic cells (LAPC-4 cells [1]; 30 and 50 µM): very low and non-significant | viable cells (LAPC-4 cells [1]; 30 and 50 µM, dropped from 92%): 20% | IC50 (VCaP): 5.78 µM | F-CHOL (free cholesterol), liver (LAPC-4 xenografts): 2410 ± 10 (NS) µg/g | F-CHOL (free cholesterol), plasma (LAPC-4 xenografts): 403 ± 120 (NS) µg/mL | F-CHOL (free cholesterol), tumor (LAPC-4 xenografts): 3270 ± 236 (NS) µg/g | T-CHOL (total cholesterol), liver (LAPC-4 xenografts): 2440 ± 475 (NS) µg/g | T-CHOL (total cholesterol), plasma (LAPC-4 xenografts): 1820 ± 500 (NS) µg/mL | T-CHOL (total cholesterol), tumor (LAPC-4 xenografts): 4543 ± 2476 (NS) µg/g | RM-581 in Plasma ([2]; 3 mg/kg PO): 15 ng/mL and 0.023 µM | RM-581 in Tumor ([2]; 3 mg/kg PO): 50 ng/g and 0.077 µM | RM-581 in Plasma ([2]; 10 mg/kg PO): 30 ng/mL and 0.046 µM | RM-581 in Tumor ([2]; 10 mg/kg PO): 300 ng/g and 0.464 µM | RM-581 in Plasma ([2]; 30 mg/kg PO): 171 ng/mL and 0.265 µM | RM-581 in Tumor ([2]; 30 mg/kg PO): 940 ng/g and 1.465 µM | concentration at 3 h ([2]; plasma, 30 mg/kg PO, read-out: RM-581 in Plasma): 171 ng/mL | concentration at 3 h ([2]; plasma, PO, read-out: RM-581 in Plasma): 15 ng/mL | Kp at 3 h ([2]; 3 mg/kg PO): 3.3 | Kp at 3 h ([2]; 10 mg/kg PO): 10 | Kp at 3 h ([2]; 30 mg/kg PO): 5.5 | concentration at 3 h ([2]; tumor, 30 mg/kg PO, read-out: RM-581 in Tumor): 940 ng/g | concentration at 3 h ([2]; tumor, PO, read-out: RM-581 in Tumor): 50 ng/g | Total cholesterol in LAPC-4 cells vs untreated cells (LAPC-4 cells [3]; 18, 36, or 72 h): did not show a significant difference | Total cholesterol concentration in LAPC-4 cells (LAPC-4 cells [3]; 18 h): 68 ± 3 | Total cholesterol concentration in LAPC-4 cells (LAPC-4 cells [3]; 36 h): 69 ± 6 | Total cholesterol concentration in LAPC-4 cells (LAPC-4 cells [3]; 72 h (first line, control 66 ± 2)): 69 ± 4 | IC50 (LNCaP): 1200 nM
